These results are taken from patent publication US7244713B2, “Nucleoside compounds for treating viral infections” (Genelabs Technologies, Inc., priority 2003, dated 2007).

In data set [1] the test system is HCV replicon in ET (Huh-lucubineo-ET) cell line. In words: Replicon assay (luciferase, ET cells). Type of data set: cell-based, hepatitis C virus. As to the method:
A cell line, ET (Huh-lucubineo-ET) is used for screening of compounds of the present invention for HCV RNA dependent RNA polymerase. The ET cell line is stably transfected with RNA transcripts harboring a I389luc-ubi-neo/NS3-3′/ET; replicon with firefly luciferase-ubiquitin-neomycin phosphotransferase fusion protein and EMCV-IRES driven NS3-5B polyprotein containing the cell culture adaptive mutations (E1202G; T1280I; K1846T) (Krieger at al, 2001 and unpublished). The ET cells are grown in DMEM, supplemented with 10% fetal calf serum, 2 mM Glutamine, Penicillin (100 IU/mL)/Streptomycin (100 μg/mL), 1× nonessential amino acids, and 250 μg/mL G418 (“Geneticin”). They are all available through Life Technologies (Bethesda, Md.). The cells are plated at 0.5-1.0×10^4 cells/well in the 96 well plates and incubated for 24 hrs before adding nucleoside analogs. Then the compounds were added to the cells to achieve a final concentration of 50 or 100 μM, or whatever concentration is desired. For these determinations, 6 dilutions of each compound are used. Compounds are typically diluted 3 fold to span a concentration range of 250 fold. Luciferase activity will be measured 48-72 hours later by adding a lysis buffer and the substrate (Catalog number Glo-lysis buffer E2661 and Bright-Glo leuciferase system E2620 Promega, Madison, Wis.). Cells should not be too confluent during the assay. Percent inhibition of replication will be plotted relative to no compound control. Under the same condition, cytotoxicity of the compounds will be determined using cell proliferation reagent, WST-1 (Roche, Germany). IC50 and TC50 values are calculated by fitting % inhibition at each concentration to the following equation, where b is Hill's coefficient: % inhibition=100%/[(IC50/[I])^b+1]

A further data set deals with T1, HCV-NS5b (Hepatitis C virus genotype 1b, UniProt Q9WMX2).
T1 construct: The cloned fragment is missing the C terminus 21 amino acid residues; (His)6 (C); made in house; host or cells: XL-1 cells (E. coli, IPTG-inducible plasmid)
Briefly: HCV-NS5b enzyme assay. Type of data set: biochemical. An excerpt: The coding sequence of NS5b protein is cloned by PCR from pFKI389luc/NS3-3′/ET as described by Lohmann, V., et al. (1999) Science 285, 110-113 using the following primers: […]
The cloned fragment is missing the C terminus 21 amino acid residues. The cloned fragment is inserted into an IPTG-inducible expression plasmid that provides an epitope tag (His)6 at the carboxy terminus of the protein.
The recombinant enzyme is expressed in XL-1 cells and after induction of expression, the protein is purified using affinity chromatography on a nickel-NTA column. Storage condition is 10 mM Tris-HCl pH 7.5, 50 mM NaCl, 0.1 mM EDTA, 1 mM DTT, 20% glycerol at −20° C.
The polymerase activity is assayed by measuring incorporation of radiolabeled UTP into a RNA product using a biotinylated, heteropolymeric template, which includes a portion of the HCV genome. Typically, the assay mixture (50 μL) contains 10 mM Tris-HCl (pH 7.5), 5 mM MgCl2, 0.2 mM EDTA, 10 mM KCl, 1 unit/μL RNAsin, 1 mM DTT, 10 μM each of NTP, including [^3H]-UTP, and 10 ng/μL heteropolymeric template. Test compounds are initially dissolved in 100% DMSO and further diluted in aqueous buffer containing 5% DMSO. Typically, compounds are tested at concentrations between 1 nM and 100 μM. Reactions are started with addition of enzyme and allowed to continue at 37° C. for 2 hours. Reactions are quenched with 8 μL of 100 mM EDTA and reaction mixtures (30 μL) are transferred to streptavidin-coated scintillation proximity microtiter plates (FlashPlates) and incubated at 4° C. overnight. Incorporation of radioactivity is determined by scintillation counting.

Another data set has as its system HCV. The conditions noted are these: treatment of HCV, long term efficacy; cited from earlier work.
For data set [2] the following is noted: currently recommended doses; cited from earlier work.

One may read the inhibition as the share of the control response that was lost under treatment. In the case of `C[C@@]1(O)[C@H](O)[C@@H](CO)O[C@H]1n1cc(C#C[Si](C)(C)C)c2c(N)ncnc21` [Cmpd 101, 7-(2′-C-methyl-β-D-ribofuranosyl)-4-amino-5-(2′-trimethylsilylethyn-1-yl)-pyrrolo[2,3-d]pyrimidine], in data set [1] (Hepatitis C virus), at 50 µM the inhibition was 98.1% and the inhibition at 100 µM turned out to be 98.5%. For `CCOC(C#Cc1cn(C2OC(CO)C(O)[C@@]2(C)O)c2ncnc(N)c12)OCC` (stereo in doubt) [Cmpd 106, 7-(2′-C-methyl-β-D-ribofuranosyl)-4-amino-5-[(3,3-diethoxy)proparg-1-yl]-pyrrolo[2,3-d]pyrimidine], the inhibition at 50 µM in data set [1] (Hepatitis C virus, 50 μM) was 95.5%. Besides, 100 µM produced 95.6% inhibition in data set [1] (Hepatitis C virus, 100 μM). For `C[C@@]1(O)[C@H](O)[C@@H](COP(=O)(O)OP(=O)(O)OP(=O)(O)O)O[C@H]1n1cc(C=O)c2c(N)ncnc21` [Cmpd 168, 7-(2′-C-methyl-5′-triphospho-β-D-ribofuranosyl)-4-amino-5-(formyl)-pyrrolo[2,3-d]pyrimidine], the inhibition at 7.7 µM at HCV-NS5b (7.7 μM, read-out: Enzyme, % inhibition @Con 2) came out at 92%. Moreover, the inhibition at 23.1 µM on HCV-NS5b (23.1 μM, read-out: Enzyme, % inhibition @Con 1) came out at 96%. `C[C@@]1(O)[C@H](O)[C@@H](CO)O[C@H]1n1cc(C#CC(=O)O)c2c(N)ncnc21` [Cmpd 133, 7-(2′-C-methyl-β-D-ribofuranosyl)-4-amino-5-(2-carboxyethyn-1-yl)-pyrrolo[2,3-d]pyrimidine]: 50 µM produced 92.3% inhibition in data set [1] (Hepatitis C virus, 50 μM). This molecule also had an inhibition at 100 µM in data set [1] (Hepatitis C virus, 100 μM) of 96.7%.

With interferon, the response rate result with HCV is on record as “about 25%”. Molecule `C=Cc1cn([C@@H]2O[C@H](CO)[C@@H](O)[C@@]2(C)O)c2ncnc(N)c12` [Cmpd 157, 7-(2′-C-methyl-β-D-ribofuranosyl)-4-amino-5-(ethen-1-yl)-pyrrolo[2,3-d]pyrimidine] registered an inhibition at 50 µM in data set [1] (Hepatitis C virus, 50 μM) of 89%. The molecule further came in with an inhibition at 100 µM in data set [1] (Hepatitis C virus, 100 μM) of 95%. With `NC(=O)c1ncn([C@@H]2O[C@H](CO)[C@@H](O)[C@H]2O)n1` [Ribavirin, 1-β-D-ribofuranosyl-1H-1,2,-4-triazole-3-carboxamide], in data set [2], the “patients with significant hemolysis” value is listed as 10-20%. Consider `C[C@@]1(O)[C@H](O)[C@@H](COP(=O)(O)OP(=O)(O)OP(=O)(O)O)O[C@H]1n1cc(C#Cc2ccccc2)c2c(N)ncnc21` [Cmpd 154, 7-(2′-C-methyl-5′-triphospho-β-D-ribofuranosyl)-4-amino-5-(2-phenylethyn-1-yl)-pyrrolo[2,3-d]pyrimidine], for which the inhibition at 16.7 µM on HCV-NS5b (16.7 μM, read-out: Enzyme, % inhibition @Con 2) came to 10.9%. Besides, the inhibition at 50 µM on HCV-NS5b (50 μM, read-out: Enzyme, % inhibition @Con 1) is 19.2%. Consider `C[C@@]1(O)C(O)C(CO)OC1n1cc(C=NO)c2c(N)ncnc21` (stereo in doubt) [Cmpd 173, 7-(2′-C-methyl-β-D-ribofuranosyl)-4-amino-5-(carbaldehyde oxime)-pyrrolo[2,3-d]pyrimidine], for which the inhibition at 50 µM in data set [1] (Hepatitis C virus, 50 μM) was found to be 76.7%. In addition, in data set [1] (Hepatitis C virus, 100 μM), the inhibition at 100 µM came to 86.9%. Taken in the same sequence, the figures for `C[C@@]1(O)C(O)C(CO)OC1n1cc(/C=N/N)c2c(N)ncnc21` (stereo partly drawn) [Cmpd 169, 7-(2′-C-methyl-β-D-ribofuranosyl)-4-amino-5-(hydrazono)-pyrrolo[2,3-d]pyrimidine] were 80.7% and 89.6%.

In data set [1] (Hepatitis C virus, 16.7 μM, second test), `C[C@@]1(O)[C@H](O)[C@@H](COP(=O)(O)O)O[C@H]1n1cc(C=O)c2c(N)ncnc21` [Cmpd 166, 7-(2′-C-methyl-5′-phospho-β-D-ribofuranosyl)-4-amino-5-(formyl)-pyrrolo[2,3-d]pyrimidine] yielded an inhibition at 16.7 µM of 96.6%. Besides, at 50 µM the inhibition in data set [1] (Hepatitis C virus, 50 μM) was 97%.

In the case of `CO/C=C\c1cn([C@@H]2O[C@H](CO)[C@@H](O)[C@@]2(C)O)c2ncnc(N)c12` [Cmpd 158, 7-(2′-C-methyl-β-D-ribofuranosyl)-4-amino-5-(2-cis-methoxy-ethen-1-yl)-pyrrolo[2,3-d]pyrimidine], the “Replicon, % inhibition @100 μM” value in data set [1] (100 μM) was 62.4%. In data set [1] (Hepatitis C virus, 100 μM), the inhibition at 100 µM was determined as 78.6%. In the case of `C[C@@]1(O)C(O)C(CO)OC1n1cc(B(O)O)c2c(N)ncnc21` (stereo in doubt) [Cmpd 181, 7-(2′-C-methyl-β-D-ribofuranosyl)-4-amino-5-(boronic acid)-pyrrolo[2,3-d]pyrimidine], the inhibition at 50 µM in data set [1] (Hepatitis C virus, 50 μM) worked out at 98.2%. Moreover, the inhibition at 100 µM in data set [1] (Hepatitis C virus, 100 μM) came to 98.1%. Consider `CCOC(=O)C#Cc1cn([C@@H]2O[C@H](CO)[C@@H](O)[C@@]2(C)O)c2ncnc(N)c12` [Cmpd 137, 7-(2′-C-methyl-β-D-ribofuranosyl)-4-amino-5-[(ethyl 2-carboxyl)ethyn-1-yl]-pyrrolo[2,3-d]pyrimidine], for which, in data set [1] (Hepatitis C virus, 50 μM), 50 µM produced 98.1% inhibition. The same molecule came in with an inhibition at 100 µM in data set [1] (Hepatitis C virus, 100 μM) of 97.6%.

In data set [1] (Hepatitis C virus), `C[C@@]1(O)[C@H](O)[C@@H](CO)O[C@H]1n1cc(C=O)c2c(N)ncnc21` [Cmpd 165, 7-(2′-C-methyl-β-D-ribofuranosyl)-4-amino-5-(formyl)-pyrrolo[2,3-d]pyrimidine] yielded an inhibition at 50 µM of 96.8% and an inhibition at 100 µM of 95.9%. In data set [1] (Hepatitis C virus, 50 μM), `C[C@@]1(O)C(O)C(CO)OC1n1cc(C#CC(N)=O)c2c(N)ncnc21` (stereo in doubt) [Cmpd 105, 7-(2′-C-methyl-β-D-ribofuranosyl)-4-amino-5-(2-carboxamidoethyn-1-yl)-pyrrolo[2,3-d]pyrimidine] had an inhibition at 50 µM of 69.6%. This molecule had an inhibition at 100 µM in data set [1] (Hepatitis C virus, 100 μM) of 89.1%. The molecule `C[C@@]1(O)[C@H](O)[C@@H](CO)O[C@H]1n1cc(C#Cc2ccccc2)c2c(N)ncnc21` [Cmpd 145, 7-(2′-C-methyl-β-D-ribofuranosyl)-4-amino-5-(2-phenylethyn-1-yl)-pyrrolo[2,3-d]pyrimidine] registered an inhibition at 50 µM in data set [1] (Hepatitis C virus, 50 μM) of 90.7%. Also, the inhibition at 100 µM in data set [1] (Hepatitis C virus, 100 μM) amounted to 91.8%.
